Test results taken from patent US11208446B2, “Agents and methods for treating CBP-dependent cancers” (priority 2016, dated 2021).
“Also recorded” adds a separate entry of the source. *: point of attachment. Biotin = O=C1N[C@H]2[C@H](CS[C@H]2CCCCC(=O)*)N1

Assays:
[1] = target: T1, CBP in MV411 human AML cells (Homo sapiens, UniProt Q92793); test: Streptavidin affinity purification (pull-down) of CBP with biotinylated peptides, Western blot; type: binding; details: AML cell lysates, competition with non-biotinylated peptide
T1 construct: endogenous in cells; host or cells: MV411 human AML cells (lysate)
Experimental: Western blot analysis. Cells were lysed in RIPA buffer (Thermo Fisher) supplemented with a protease inhibitor mix comprised of AEBSF (0.5 mM concentration, Santa Cruz, SC-202041B), Bestatin (0.01 mM concentration, Fisher/Alfa Aesar, J61106-MD), Leupeptin (0.1 mM concentration, Santa Cruz, SC-295358B), and Pepstatin (0.001 mM concentration, Santa Cruz, SC-45036A). Lysates were mechanically disrupted using Covaris S220 adaptive focused sonicator, according to the manufacturer's instructions (Covaris, Woburn, Calif.). Lysates were cleared by centrifugation for 15 min at 18,000×g and clarified lysates were quantified using the bicinchoninic acid assay (Pierce). Clarified lysates (20 μg of protein) were resolved using sodium dodecyl sulfate-polyacrylamide gel electrophoresis, and electroeluted using the Immobilon FL PVDF membranes (Millipore, Billerica, Mass., USA). Membranes were blocked using the Odyssey Blocking buffer (Li-Cor, Lincoln, Nebr., USA). […] Blotted membranes were visualized using secondary antibodies conjugated to IRDye 800CW or IRDye 680RD (Goat anti-rabbit, 1:15,000, and goat anti-mouse, 1:15,000) and the Odyssey CLx fluorescence scanner, according to manufacturer's instructions (Li-Cor, Lincoln, Nebr., USA). […]

purified CBP-KIX domain = target: T2, purified CBP-KIX domain (Homo sapiens, UniProt Q92793); test: Microscale thermopheresis (MST) binding of FITC-conjugated peptides to purified KIX; details: FITC-conjugated peptide at fixed concentration, KIX 0.015 to 50 μM, n=3
T2 construct: Expression and purification of recombinant CBP KIX domain; GST (N, cleaved yes); made in house; host or cells: E. coli BL21(DE3)
Experimental: Expression and purification of recombinant CBP KIX domain. BL21(DE3) cells (Invitrogen) transformed with pGEX-KIX plasmid were induced at 37° C. with isopropyl β-D-1-thiogalactopyranoside for 3 hours. Cells were lysed in 50 mM Tris-HCl pH 7.3, 150 mM NaCl, 0.1% TWEEN-20, 1 mM DTT, 5 mM EDTA, supplemented with protease inhibitors described above and sonicated for ten minutes (15 sec on, 15 sec off, 40% amplitude) using the Misonix probe sonicator (Qsonica, Newtown, Conn.). Lysate was cleared by centrifugation for 1 h at 21,800×g at 4° C. Cleared lysate was incubated with 4 mL glutathione agarose resin slurry (GoldBio) for 1 h at 4° C. to capture GST-KIX. Resin was washed four times with 50 mM Tris-HCl pH 7.4, 150 mM NaCl. KIX domain was cleaved from GST by incubation of resin-bound GST-KIX with 160 U thrombin (GE Healthcare) overnight at room temperature. Resin was centrifuged at 500×g for 5 min. Supernatant containing cleaved KIX was collected and dialyzed at 4° C. against 50 mM MOPS pH 6.5, 50 mM NaCl, 10% glycerol, 1 μM tris-2-carboxyethylphosphine. KIX was purified using a linear gradient of 50 mM to 1 M NaCl by cation exchange chromatography using MonoS 5/50 GL column (GE Healthcare). Fractions containing purified KIX were dialyzed against 50 mM potassium phosphate pH 5.5, 150 mM NaCl, 10 μM tris-2-carboxyethylphosphine, 30% glycerol, and stored at −80° C. […]

MOLM13 cells = test: Confocal microscopy of intranuclear penetration of FITC-labelled peptide; type: cell-based; details: 50 nM peptide, 20 minutes, human AML cell line
Experimental: Confocal microscopy. Live confocal imaging was performed using the Leica SP8 confocal microscope and 63× objective with 1 μm z-stack images. Cells were applied to a poly-L-lysine coated chambered Nunc Lab-tek II slide and incubated for 2 hours at 37° C. Prior to imaging, FITC-conjugated peptides were added to cell suspensions at a concentration of 50 nM. Cells were counter-stained using Hoechst 33342 and Mitotracker Red CMX ROS (MProbes) for 10 minutes at a final dilution of 1:10,000 prior to imaging.

[2] = tested on: MOLM13, MV411, ML2, and HL60 cell lines; test: Cell viability, live cell count by Trypan blue exclusion; type: cell-based, human; details: 10 μM and 20 μM every 48 hours for 6 days
Experimental: Cell culture. The human AML lines MV411, MOLM13, ML2, and HL60 were obtained from the American Type Culture Collection (ATCC, Manassas, Va., USA). Umbilical cord blood was obtained from the New York Blood Center. The identity of all cell lines was verified by STR analysis (Genetica DNA Laboratories, Burlington, N.C., USA) and absence of Mycoplasma sp. contamination was determined using Lonza MycoAlert (Lonza Walkersville, Inc., Walkersville, Md., USA). Cell lines were cultured in 5% CO2 in a humidified atmosphere at 37° C. in RPMI medium supplemented with 10% fetal bovine serum (FBS) and antibiotics (100 U/ml penicillin and 100 μg/ml streptomycin). Cell viability analysis. Cells were resuspended and plated at a concentration of 2×10^5 cells in 200 μL in 96-well tissue culture plates. Media with peptides was replaced every 48 hours. To assess the number of viable cells, cells were resuspended in PBS and 10 μL mixed in a 1:1 ratio with 0.4% Trypan Blue (Thermo Fisher) and counted using a hematocytometer (Hausser Scientific, Horsham, Pa., USA). To assess viability using an ATP-based assay, cell viability was assessed using the CellTiter-Glo Luminescent Viability assay, according to the manufacturer's instructions (Promega). Luminescence was recorded using the Infinite M1000Pro plate reader using integration time of 250 milliseconds (Tecan).

MYB:CBP complex = target: T3, MYB:CBP complex (Homo sapiens, UniProt Q92793); test: Dissociation of MYB:CBP complex in AML cells (co-immunoprecipitation); type: cell-based
T3 construct: endogenous in cells; host or cells: MV411 human AML cells
Experimental: Co-immunoprecipitation analysis. 7.5 μg of indicated antibodies were conjugated to 1 mg M-270 Epoxy-coated magnetic beads (Invitrogen) according to manufacturer's instructions. 1×10^7 MV411 cells were collected and washed in cold PBS. Washed cell pellets were resuspended in 350 μL cold lysis buffer (50 mM Tris-HCl pH 7.4, 150 mM NaCl, 1 mM EDTA, 1 mM DTT, 0.5% Triton X-100, supplemented with protease inhibitors described above) and incubated on ice for 10 min. Cells were mechanically disrupted using the Covaris […] adaptive focused sonicator at 50 W peak power, 10% duty cycle, 200 cycles per burst at 4° C. for 300 sec. Lysate was clarified by centrifugation for 15 min at 18,000×g at 4° C. Supernatant (cleared lysate) was diluted in 1.05 mL dilution buffer (50 mM Tris-HCl, 150 mM NaCl, 1 mM EDTA, 1 mM DTT, 10% glycerol, supplemented with protease inhibitors described above for a total volume of 1.4 mL. Diluted lysate was added to 1 mg beads, and immunoprecipitation proceeded for 3 h at 4° C. with rotation. Beads were then washed with lysis buffer twice. Proteins were eluted in 20 μL EB buffer (Invitrogen) for 5 min at room temperature, and eluate was neutralized with 2 μL 1M Tris pH 11. Samples were prepared for Western blot by addition of Laemmli buffer with 50 mM DTT and incubation at 95° C. for 5 min. Presence of MYB and CBP was identified by Western blot as described above.

T1 sequence (Q92793 whole entry): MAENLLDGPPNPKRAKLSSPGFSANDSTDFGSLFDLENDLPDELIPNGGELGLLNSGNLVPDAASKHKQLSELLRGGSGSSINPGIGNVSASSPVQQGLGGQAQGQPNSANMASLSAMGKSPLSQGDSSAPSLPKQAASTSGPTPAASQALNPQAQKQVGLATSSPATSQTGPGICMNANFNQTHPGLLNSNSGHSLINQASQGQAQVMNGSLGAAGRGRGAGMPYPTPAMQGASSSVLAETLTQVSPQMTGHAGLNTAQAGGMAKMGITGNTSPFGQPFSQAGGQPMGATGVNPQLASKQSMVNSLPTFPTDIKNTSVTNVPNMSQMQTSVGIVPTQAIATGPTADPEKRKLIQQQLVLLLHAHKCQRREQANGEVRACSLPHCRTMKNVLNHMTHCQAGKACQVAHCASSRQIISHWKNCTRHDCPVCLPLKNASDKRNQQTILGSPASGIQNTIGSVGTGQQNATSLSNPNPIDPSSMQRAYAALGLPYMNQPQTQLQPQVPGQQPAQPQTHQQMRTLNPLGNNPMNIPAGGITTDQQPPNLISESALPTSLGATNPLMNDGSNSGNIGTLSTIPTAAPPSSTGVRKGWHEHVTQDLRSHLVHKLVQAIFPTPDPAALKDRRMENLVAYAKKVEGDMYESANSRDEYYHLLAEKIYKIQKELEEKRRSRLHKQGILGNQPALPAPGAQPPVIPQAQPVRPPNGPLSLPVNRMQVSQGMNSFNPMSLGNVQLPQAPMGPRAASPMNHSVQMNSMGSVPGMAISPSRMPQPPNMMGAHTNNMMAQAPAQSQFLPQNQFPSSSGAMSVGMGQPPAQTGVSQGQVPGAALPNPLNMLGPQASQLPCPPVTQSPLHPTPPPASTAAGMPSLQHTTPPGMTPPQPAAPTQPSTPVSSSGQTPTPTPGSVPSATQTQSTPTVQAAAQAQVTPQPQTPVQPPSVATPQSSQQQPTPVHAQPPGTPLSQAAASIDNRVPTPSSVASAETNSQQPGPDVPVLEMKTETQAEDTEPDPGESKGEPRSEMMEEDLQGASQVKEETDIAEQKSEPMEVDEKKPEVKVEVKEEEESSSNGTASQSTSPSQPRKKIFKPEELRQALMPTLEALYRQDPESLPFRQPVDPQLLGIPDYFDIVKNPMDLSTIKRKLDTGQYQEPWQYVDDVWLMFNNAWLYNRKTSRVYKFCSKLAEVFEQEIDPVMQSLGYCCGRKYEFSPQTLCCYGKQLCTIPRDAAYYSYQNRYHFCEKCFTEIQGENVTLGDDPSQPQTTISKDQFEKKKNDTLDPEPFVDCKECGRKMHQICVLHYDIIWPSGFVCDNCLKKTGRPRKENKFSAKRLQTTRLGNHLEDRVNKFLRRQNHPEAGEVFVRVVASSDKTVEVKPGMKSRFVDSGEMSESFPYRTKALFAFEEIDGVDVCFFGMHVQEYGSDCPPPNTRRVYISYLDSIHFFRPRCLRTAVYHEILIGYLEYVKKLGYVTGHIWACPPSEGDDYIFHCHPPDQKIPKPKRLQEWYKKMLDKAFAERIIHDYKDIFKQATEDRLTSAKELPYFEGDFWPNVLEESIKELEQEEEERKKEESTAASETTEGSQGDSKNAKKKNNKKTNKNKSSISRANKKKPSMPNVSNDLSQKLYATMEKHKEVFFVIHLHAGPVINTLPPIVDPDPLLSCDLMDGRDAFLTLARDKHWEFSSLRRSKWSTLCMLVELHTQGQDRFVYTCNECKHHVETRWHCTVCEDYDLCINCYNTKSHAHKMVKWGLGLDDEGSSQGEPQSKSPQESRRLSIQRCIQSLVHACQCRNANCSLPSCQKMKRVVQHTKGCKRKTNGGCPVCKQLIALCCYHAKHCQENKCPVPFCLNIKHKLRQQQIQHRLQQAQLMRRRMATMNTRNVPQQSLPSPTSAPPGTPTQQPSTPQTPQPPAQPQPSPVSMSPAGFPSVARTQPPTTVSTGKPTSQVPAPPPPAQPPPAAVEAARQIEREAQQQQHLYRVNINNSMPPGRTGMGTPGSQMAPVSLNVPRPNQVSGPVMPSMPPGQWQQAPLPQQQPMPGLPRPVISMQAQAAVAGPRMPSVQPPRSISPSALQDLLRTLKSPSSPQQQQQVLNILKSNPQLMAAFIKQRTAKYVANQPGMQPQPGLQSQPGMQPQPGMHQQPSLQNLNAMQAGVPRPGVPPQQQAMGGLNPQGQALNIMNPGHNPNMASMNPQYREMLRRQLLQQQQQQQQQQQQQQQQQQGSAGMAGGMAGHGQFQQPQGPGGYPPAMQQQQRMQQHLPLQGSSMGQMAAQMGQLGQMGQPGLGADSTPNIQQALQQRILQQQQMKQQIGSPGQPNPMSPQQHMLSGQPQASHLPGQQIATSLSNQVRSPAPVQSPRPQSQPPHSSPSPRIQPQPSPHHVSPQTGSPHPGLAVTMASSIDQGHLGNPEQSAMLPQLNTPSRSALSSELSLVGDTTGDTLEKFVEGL
T2 sequence (Q92793 587-666 limits assumed): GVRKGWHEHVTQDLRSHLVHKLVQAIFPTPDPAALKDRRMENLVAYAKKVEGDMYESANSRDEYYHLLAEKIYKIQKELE
T3 sequence (Q92793 2-2442 limits assumed, one chain of several): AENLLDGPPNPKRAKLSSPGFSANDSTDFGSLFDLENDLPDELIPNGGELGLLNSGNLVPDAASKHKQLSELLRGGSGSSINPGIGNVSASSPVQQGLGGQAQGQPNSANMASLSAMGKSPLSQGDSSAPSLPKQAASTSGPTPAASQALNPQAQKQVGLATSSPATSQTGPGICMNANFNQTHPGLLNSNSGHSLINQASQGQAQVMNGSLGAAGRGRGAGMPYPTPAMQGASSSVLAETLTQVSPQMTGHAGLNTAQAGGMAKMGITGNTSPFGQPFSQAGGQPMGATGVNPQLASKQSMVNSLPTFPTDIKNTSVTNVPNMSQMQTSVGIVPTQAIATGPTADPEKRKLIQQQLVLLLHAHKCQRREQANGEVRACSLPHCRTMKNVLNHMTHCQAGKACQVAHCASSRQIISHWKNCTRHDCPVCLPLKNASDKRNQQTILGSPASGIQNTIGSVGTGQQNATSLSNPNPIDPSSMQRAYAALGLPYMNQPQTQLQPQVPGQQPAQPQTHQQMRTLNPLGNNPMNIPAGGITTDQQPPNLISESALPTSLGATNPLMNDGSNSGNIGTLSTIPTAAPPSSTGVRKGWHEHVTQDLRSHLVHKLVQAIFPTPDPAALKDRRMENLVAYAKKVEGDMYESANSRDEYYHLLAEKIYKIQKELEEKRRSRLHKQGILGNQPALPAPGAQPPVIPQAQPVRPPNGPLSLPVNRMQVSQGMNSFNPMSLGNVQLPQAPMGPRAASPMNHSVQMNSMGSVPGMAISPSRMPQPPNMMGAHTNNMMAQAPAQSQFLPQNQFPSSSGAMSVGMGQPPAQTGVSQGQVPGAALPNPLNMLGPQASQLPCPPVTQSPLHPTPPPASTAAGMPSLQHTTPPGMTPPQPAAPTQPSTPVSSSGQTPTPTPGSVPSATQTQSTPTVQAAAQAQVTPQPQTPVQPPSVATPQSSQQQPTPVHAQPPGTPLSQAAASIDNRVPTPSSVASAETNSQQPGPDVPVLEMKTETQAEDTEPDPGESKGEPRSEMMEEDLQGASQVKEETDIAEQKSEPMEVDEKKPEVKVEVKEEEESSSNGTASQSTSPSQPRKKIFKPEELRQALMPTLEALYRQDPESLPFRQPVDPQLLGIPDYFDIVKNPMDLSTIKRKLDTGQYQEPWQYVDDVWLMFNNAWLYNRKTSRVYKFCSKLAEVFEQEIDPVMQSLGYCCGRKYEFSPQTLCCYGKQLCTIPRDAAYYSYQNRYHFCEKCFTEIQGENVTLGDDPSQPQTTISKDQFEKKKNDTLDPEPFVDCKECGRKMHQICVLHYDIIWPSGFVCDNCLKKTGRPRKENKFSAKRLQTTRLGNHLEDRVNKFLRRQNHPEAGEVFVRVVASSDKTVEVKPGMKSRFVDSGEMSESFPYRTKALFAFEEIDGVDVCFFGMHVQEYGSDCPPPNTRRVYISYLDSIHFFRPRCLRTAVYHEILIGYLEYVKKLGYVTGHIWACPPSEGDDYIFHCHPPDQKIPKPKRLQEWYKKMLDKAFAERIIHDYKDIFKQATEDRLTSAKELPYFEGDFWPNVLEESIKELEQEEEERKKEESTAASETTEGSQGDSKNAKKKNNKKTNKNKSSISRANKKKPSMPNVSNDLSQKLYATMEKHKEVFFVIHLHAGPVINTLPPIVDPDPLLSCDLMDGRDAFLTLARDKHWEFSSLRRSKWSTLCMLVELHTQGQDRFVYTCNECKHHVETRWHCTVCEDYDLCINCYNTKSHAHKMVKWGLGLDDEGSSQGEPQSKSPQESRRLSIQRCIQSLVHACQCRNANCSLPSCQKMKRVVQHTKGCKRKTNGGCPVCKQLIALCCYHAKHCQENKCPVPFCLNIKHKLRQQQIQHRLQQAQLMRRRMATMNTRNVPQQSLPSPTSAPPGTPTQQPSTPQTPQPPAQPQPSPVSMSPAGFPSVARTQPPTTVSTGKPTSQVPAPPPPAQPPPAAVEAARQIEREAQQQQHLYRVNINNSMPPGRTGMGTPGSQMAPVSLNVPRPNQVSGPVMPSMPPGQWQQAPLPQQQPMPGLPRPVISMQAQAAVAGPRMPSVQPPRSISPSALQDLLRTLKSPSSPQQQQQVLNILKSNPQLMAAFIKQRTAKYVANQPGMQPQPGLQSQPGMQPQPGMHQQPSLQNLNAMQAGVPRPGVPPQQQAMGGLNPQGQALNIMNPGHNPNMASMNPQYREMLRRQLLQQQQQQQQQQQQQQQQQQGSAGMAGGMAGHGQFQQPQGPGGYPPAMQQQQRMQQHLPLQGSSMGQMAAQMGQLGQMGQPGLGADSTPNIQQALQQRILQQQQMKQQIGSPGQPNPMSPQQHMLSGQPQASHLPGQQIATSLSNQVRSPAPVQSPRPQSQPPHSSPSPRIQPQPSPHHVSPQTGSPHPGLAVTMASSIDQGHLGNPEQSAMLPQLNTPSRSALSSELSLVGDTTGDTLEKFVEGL

Substance: Biotin-YGRKKRRQRRRGGKRIKELELLLMSTENELK-NH2 [BIOMYB]
- binding to / pull-down of CBP [1]: able to pull down CBP; also recorded: specific binding

Substance: FITC-AHA-YGRKKRRQRRR-NH2 [FITC-TAT]
- KD (apparent binding affinity to purified KIX) (purified CBP-KIX domain): no interaction seen
- intranuclear penetration (FITC-Hoechst overlay) (MOLM13 cells): overlap of FITC and Hoechst in the nucleus
- intranuclear penetration (FITC-Hoechst overlay) (MOLM13 cells; listed as SEQ ID NO:6): intranuclear penetration

Substance: [Ac]-KLGNETSMGLLELEKIGKGG-RRRQRRKKRGY-[NH2] [TG3, reference compound]
- AML cell death (live cells on Day 6) [2]: inactive
- MYB:CBP complex in cells (MYB:CBP complex): inactive

Substance: acetyl-KLENETSMLLLELEKIRKGGRRRQRRKKRGYK-biotin-NH2 [RI-BIOMYB]
- binding to / pull-down of CBP [1]: specific binding
